The values below come from patent US5244898A, “Benzoheterocyclic compounds” (Otsuka Pharmaceutical Co., Ltd., priority 1991, dated 1993).

Molecules are shown by their SMILES. Counter-ions that a name gives are not always drawn.

In general, IC50 refers to the midpoint of a concentration-inhibition curve.

For assay [1], the target named is T1, V2 Receptor (Rattus norvegicus, UniProt Q00788).
T1 construct: rat kidney plasma membrane preparations; from tissue; host or cells: rat kidney plasma membranes
T1 sequence (Q00788 whole entry): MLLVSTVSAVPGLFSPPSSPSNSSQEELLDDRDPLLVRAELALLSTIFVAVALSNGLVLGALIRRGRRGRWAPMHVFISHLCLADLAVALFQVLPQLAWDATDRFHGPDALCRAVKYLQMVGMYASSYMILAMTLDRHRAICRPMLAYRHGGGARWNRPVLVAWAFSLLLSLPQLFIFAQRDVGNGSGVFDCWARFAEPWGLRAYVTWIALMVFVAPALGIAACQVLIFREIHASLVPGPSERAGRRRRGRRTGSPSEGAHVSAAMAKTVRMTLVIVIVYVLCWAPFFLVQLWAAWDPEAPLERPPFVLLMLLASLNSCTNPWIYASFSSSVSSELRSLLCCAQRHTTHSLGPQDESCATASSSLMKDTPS
As to the kind of experiment: V2 Receptor Binding Assay ([3H]-Arg-vasopressin, rat kidney plasma membrane). The following applies: 4° C., pH 8.0.
Description: Chem., 253, 3211 (1978)], the plasma membrane (100000 dpm, 4×10^-10M) of [^3 H]-Arg-vasopressin and a test compound (0.6 mg, 10^-10 -10^-5 M) are incubated at 4° C. for 3 hours in 100 mM Tris-HCl buffer pH: 8.0 (250 μl ) containing 5 mM MgCl2, 1 mM EDTA and 0.1 % BSA. After incubation, the mixture is filtered using the glass filter (GF/F) so as to separate the membrane preparation combining with vasopressin and then washed twice with the buffer (5 ml). This glass filter is taken out and mixed with liquid scintillation cocktail. The amount of [^3 H]-vasopressin combining with the membrane is measured by liquid scintillation counter and the rate of the inhibitory effect of the test compound is estimated according to the following equation. [formula]
(§1) C1 : The amount of [^3 H]-vasopressin combining with the membrane in the presence of the test compound of a known amount.
(§2) C0 : The amount of [^3 H]-vasopressin combining with the membrane in the absence of the test compound.
B1 : The amount of [3H-vasopressin combining with the membrane in the presence of the excess amount of vasopressin (10^-6 M).
(§3) The results are expressed as IC50 value, which is the concentration of the test compound required to achieve the inhibitory effect in the rate of 50%.

The target of assay [2] is V1 Receptor (Rattus norvegicus, UniProt P30560). Put plainly: V1 Receptor Binding Assay ([3H]-Arg-vasopressin, rat liver plasma membrane). The following applies: 37° C., 10 minutes, pH 8.0.
Chain of V1 Receptor (P30560 whole entry): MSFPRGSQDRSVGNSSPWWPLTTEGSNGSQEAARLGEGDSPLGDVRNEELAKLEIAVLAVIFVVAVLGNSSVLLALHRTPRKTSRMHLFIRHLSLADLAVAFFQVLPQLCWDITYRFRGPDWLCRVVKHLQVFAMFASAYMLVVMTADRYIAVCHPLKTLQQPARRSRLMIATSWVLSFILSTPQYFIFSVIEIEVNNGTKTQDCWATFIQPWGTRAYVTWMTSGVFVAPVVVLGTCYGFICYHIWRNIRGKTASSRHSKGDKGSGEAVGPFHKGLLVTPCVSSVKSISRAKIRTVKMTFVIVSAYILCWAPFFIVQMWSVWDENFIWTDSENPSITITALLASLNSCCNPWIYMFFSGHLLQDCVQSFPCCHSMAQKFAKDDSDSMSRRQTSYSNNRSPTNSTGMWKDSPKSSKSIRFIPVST
Description: After incubation, the mixture is filtered three times using the glass filter (GF/F) so as to separate the membrane preparation combining with vasopressin and then washed with the buffer (5 ml). This glass filter is taken out and mixed with liquid scintillation cocktail. The amount of [^3 H]-vasopressin combining with the membrane is measured by liquid scintillation counter and the rate of the inhibitory effect of the test compound is estimated according to the following equation.
as §1, §2
B1 : The amount of [^3 H]-vasopressin combining with the membrane in the presence of the excess amount of vasopressin (10^-6 M).
as §3

Take `COc1cc(NC(=O)c2ccccc2Cl)ccc1C(=O)N1CCCC(CC(=O)N2CCC(N(C)C)CC2)c2cc(Cl)ccc21` (stereo not drawn) [Test Compound 45, 5-[(4-Dimethylamino-1-piperidinyl)carbonylmethyl]-7-chloro-1-[2-methoxy-4-(2-chlorobenzoylamino)benzoyl]-2,3,4,5-tetrahydro-1H-benzazepine hydrochloride]: the IC50 came to 4 nM in assay [1] and 8 nM in assay [2].

Turning to `COc1cc(NC(=O)c2ccccc2Br)ccc1C(=O)N1CCCC(CC(=O)N2CCC(NC(C)=O)CC2)c2cc(F)ccc21` (stereo not drawn) [Test Compound 60, 5-[(4-Acetylamino-1-piperidinyl)carbonylmethyl]-7-fluoro-1-[2-methoxy-4-(2-bromobenzoylamino)benzoyl]-2,3,4,5-tetrahydro-1H-benzazepine], the IC50 was 10 nM in assay [1] and 45 nM in assay [2].

For `COc1cc(NC(=O)c2ccccc2C)ccc1C(=O)N1CCCC(CC(=O)N2CCN(C)CC2)c2cc(Cl)ccc21` (stereo not drawn) [Test Compound 63, 5-[(4-Methyl-1-piperazinyl)carbonylmethyl]-7-chloro-1-[2-methoxy-4-(2-methylbenozylamino)benzoyl]-2,3,4,5-tetrahydro-1H-benzazepine], the IC50 was found to be 10 nM in assay [1] and 30 nM in assay [2].

As for `CCOC(=O)CC1CCCN(C(=O)c2ccc(NC(=O)c3ccccc3C)cc2OC)c2ccc(Cl)cc21` (stereo not drawn) [Test Compound 26, 5-Ethoxycarbonylmethyl-7-chloro-1-[2-methoxy-4-(2-methylbenzoylamino)benzoyl]-2,3,4,5-tetrahydro-1H-benzazepine], the IC50 in assay [1] was 9 nM; in assay [2], 77 nM.

For the compound `COc1cc(NC(=O)c2ccccc2Cl)ccc1C(=O)N1CCCC(CC(=O)N2CCN(C)CC2)c2cc(Cl)ccc21` (stereo not drawn) [Test Compound 44, 5-[(4-Methyl-1-piperazinyl)carbonylmethyl]-7-chloro-1-[2-methoxy-4-(2-chlorobenzoylamino)benzoyl]-2,3,4,5-tetrahydro-1H-benzazepine hydrochloride], the IC50 amounted to 6 nM in assay [1] and 24 nM in assay [2].

Consider `COc1cc(NC(=O)c2ccccc2C)ccc1C(=O)N1CCCC(OCCN2CCNCC2)c2cc(Cl)ccc21` (stereo not drawn) [Test Compound 43, 5-[2-(1-Piperazinyl)ethoxy]-7-chloro-1-[2-methoxy-4-(2-methylbenzoylamino)benzoyl]-2,3,4,5-tetrahydro-1H-benzazepine dihydrochloride], for which the IC50 in assay [1] was determined as 6 nM; in assay [2], 70 nM.
